{
  "source": "paper PMC6018746",
  "about": "“Activation of the p53-MDM4 regulatory axis defines the anti-tumour response to PRMT5 inhibition through its role in regulating cellular splicing” (Scientific Reports, 2018)",
  "test_system": "panel of hematologic and solid cancer lines",
  "assay": "6-day in vitro growth/death assay",
  "type": "cell-based, human",
  "conditions": "for IC50: read-out: gIC50",
  "description": "To further develop these molecules and to guide clinical strategy, it was necessary to understand sensitivity in preclinical models by assessing the anti-tumour activity of the PRMT5 inhibitors in various cancers.\nCell lines were obtained from ATCC or DSMZ and were grown in recommended medium, which was most frequently RPMI-1640 containing 10% FBS. Cell line proliferation assays, Western blotting, qRT-PCR, and cell cycle analyses were performed as described previously[27],[28]. Antibody and gene expression reagents are as described in Supplementary Table 16. All studies were conducted in accordance with the GSK Policy on the Care, Welfare and Treatment of Laboratory Animals and were reviewed by the Institutional Animal Care and Use Committee either at GSK or by the ethical review process at the institution where the work was performed. Detailed descriptions of all methods can be found in the Supplemental Materials.",
  "note": "Several values for one entry are separate records, joined by “and”; a condition that tells them apart may be missing. Equal values may be shown once. Read-outs that look alike come from different tables or passages of the source.",
  "data": [
    {"smiles": "CC(=O)N1CCC(Nc2cc(C(=O)NC[C@H](O)CN3CCc4ccccc4C3)ncn2)CC1", "note": "[GSK3326595]", "values": [
      {"measurement": "IC50", "setting": "5637", "value": 0.069, "unit": "µM"},
      {"measurement": "IC50", "setting": "HCC70", "value": 0.13, "unit": "µM"},
      {"measurement": "IC50", "setting": "HCC1143", "value": 0.246, "unit": "µM"},
      {"measurement": "IC50", "setting": "HCC1806", "value": 0.098, "unit": "µM"},
      {"measurement": "IC50", "setting": "Homo sapiens, 5637", "value": 0.0693, "unit": "µM"},
      {"measurement": "IC50", "setting": "Homo sapiens, HCC70, HCC70", "value": 0.13, "unit": "µM"},
      {"measurement": "IC50", "setting": "Homo sapiens, HCC1143, HCC1143", "value": 0.246, "unit": "µM"},
      {"measurement": "IC50", "setting": "Homo sapiens, HCC1806, HCC1806", "value": 0.0976, "unit": "µM"},
      {"measurement": "IC50", "setting": "Homo sapiens, HCC1954, HCC1954", "value": 0.0792, "unit": "µM"},
      {"measurement": "IC50", "setting": "Homo sapiens, HT-1376, HT-1376", "value": 17.6, "unit": "µM"},
      {"measurement": "IC50", "setting": "Homo sapiens, J82, J82", "value": 29.3, "unit": "µM"},
      {"measurement": "IC50", "setting": "Homo sapiens, JM1, JM1", "value": 0.079, "unit": "µM"},
      {"measurement": "IC50", "setting": "Homo sapiens, KMS-11, KMS-11", "value": 0.0665, "unit": "µM"},
      {"measurement": "IC50", "setting": "Homo sapiens, LN-229, LN-229", "value": 0.254, "unit": "µM"},
      {"measurement": "IC50", "setting": "Homo sapiens, LP-1, LP1", "value": 1.94, "unit": "µM"},
      {"measurement": "IC50", "setting": "Homo sapiens, MCF7, MCF-7", "value": 0.0617, "unit": "µM"},
      {"measurement": "IC50", "setting": "Homo sapiens, MDA-MB-231, MDA-MB-231", "value": 0.544, "unit": "µM"},
      {"measurement": "IC50", "setting": "Homo sapiens, MDA-MB-453, MDA-MB-453", "value": 0.0287, "unit": "µM"},
      {"measurement": "IC50", "setting": "Homo sapiens, MDA-MB-468, MDA-MB-468", "value": 0.0565, "unit": "µM"},
      {"measurement": "IC50", "setting": "Homo sapiens, MINO", "value": 0.13, "unit": "µM"},
      {"measurement": "IC50", "setting": "Homo sapiens, Maver1, MAVER-1", "value": 0.0849, "unit": "µM"},
      {"measurement": "IC50", "setting": "Homo sapiens, NCI-H526, NCI-H526", "value": 0.275, "unit": "µM"},
      {"measurement": "IC50", "setting": "Homo sapiens, NCI-H526-R", "value": 0.344, "unit": "µM"},
      {"measurement": "IC50", "setting": "Homo sapiens, NU-DHL-1, NU-DHL-1", "value": 0.333, "unit": "µM"},
      {"measurement": "IC50", "setting": "Homo sapiens, NU-DUL-1, NU-DUL-1", "value": 0.333, "unit": "µM"},
      {"measurement": "IC50", "setting": "Homo sapiens, PER-403, PER-403", "value": 0.0383, "unit": "µM"},
      {"measurement": "IC50", "setting": "Homo sapiens, PER-624", "value": 0.524, "unit": "µM"},
      {"measurement": "IC50", "setting": "Homo sapiens, PER-704", "value": 0.658, "unit": "µM"},
      {"measurement": "IC50", "setting": "Homo sapiens, Pfeiffer", "value": 0.421, "unit": "µM"},
      {"measurement": "IC50", "setting": "Homo sapiens, RCK8, RCK8", "value": 0.529, "unit": "µM"},
      {"measurement": "IC50", "setting": "Homo sapiens, RL", "value": 0.0118, "unit": "µM"},
      {"measurement": "IC50", "setting": "Homo sapiens, RPMI-8226, RPMI-8226", "value": 0.0217, "unit": "µM"},
      {"measurement": "IC50", "setting": "Homo sapiens, RPMI-8226-DOX", "value": 29.3, "unit": "µM"},
      {"measurement": "IC50", "setting": "Homo sapiens, RPMI-8226-LR5", "value": 0.286, "unit": "µM"},
      {"measurement": "IC50", "setting": "Homo sapiens, SCaBER", "value": 0.198, "unit": "µM"},
      {"measurement": "IC50", "setting": "Homo sapiens, SF-295, SF295", "value": 24.7, "unit": "µM"},
      {"measurement": "IC50", "setting": "Homo sapiens, SF-539, SF539", "value": 0.0609, "unit": "µM"},
      {"measurement": "IC50", "setting": "Homo sapiens, SK-BR-3, SK-BR-3", "value": 0.0731, "unit": "µM"},
      {"measurement": "IC50", "setting": "Homo sapiens, SU-DHL10, SU-DHL-10", "value": 0.0367, "unit": "µM"},
      {"measurement": "IC50", "setting": "Homo sapiens, SU-DHL-2, SU-DHL-2", "value": 0.0341, "unit": "µM"},
      {"measurement": "IC50", "setting": "Homo sapiens, SU-DHL-4, SU-DHL-4", "value": 0.492, "unit": "µM"},
      {"measurement": "IC50", "setting": "Homo sapiens, SU-DHL-5, SU-DHL-5", "value": 0.0283, "unit": "µM"},
      {"measurement": "IC50", "setting": "Homo sapiens, SU-DHL-6, SU-DHL-6", "value": 0.0039, "unit": "µM"},
      {"measurement": "IC50", "setting": "Homo sapiens, SU-DHL-8, SU-DHL-8", "value": 0.0525, "unit": "µM"},
      {"measurement": "IC50", "setting": "Homo sapiens, SU-DHL-16, SU-DHL-16", "value": 0.0989, "unit": "µM"},
      {"measurement": "IC50", "setting": "Homo sapiens, SW780, SW-780", "value": 0.29, "unit": "µM"},
      {"measurement": "IC50", "setting": "Homo sapiens, T-24, T24", "value": 0.765, "unit": "µM"},
      {"measurement": "IC50", "setting": "Homo sapiens, U2932, U2932", "value": 0.0525, "unit": "µM"},
      {"measurement": "IC50", "setting": "Homo sapiens, U-87 MG", "value": 0.0396, "unit": "µM"},
      {"measurement": "IC50", "setting": "Homo sapiens, U-2940, U2940", "value": 14.8, "unit": "µM"},
      {"measurement": "IC50", "setting": "Homo sapiens, UMUC3, UM-UC-3", "value": 29.3, "unit": "µM"},
      {"measurement": "IC50", "setting": "Homo sapiens, WSU-NHL", "value": 0.0084, "unit": "µM"},
      {"measurement": "IC50", "setting": "Homo sapiens, WSUDLCL2, WSU-DLCL2", "value": 0.0817, "unit": "µM"},
      {"measurement": "IC50", "setting": "Homo sapiens, ZR-75-1, ZR-75-1", "value": 11, "unit": "µM"},
      {"measurement": "IC50", "setting": "J82", "value": 29.3, "unit": "µM"},
      {"measurement": "IC50", "setting": "KMS-11", "value": 0.066, "unit": "µM"},
      {"measurement": "IC50", "setting": "LN-229", "value": 0.254, "unit": "µM"},
      {"measurement": "IC50", "setting": "LP1", "value": 1.95, "unit": "µM"},
      {"measurement": "IC50", "setting": "MAVER-1", "value": 0.085, "unit": "µM"},
      {"measurement": "IC50", "setting": "MDA-MB-231", "value": 0.544, "unit": "µM"},
      {"measurement": "IC50", "setting": "MDA-MB-453", "value": 0.029, "unit": "µM"},
      {"measurement": "IC50", "setting": "MDA-MB-468", "value": 0.057, "unit": "µM"},
      {"measurement": "IC50", "setting": "MINO", "value": "0.13 µM and > 0.1 µM"},
      {"measurement": "IC50", "setting": "NCI-H526-R", "value": 0.344, "unit": "µM"},
      {"measurement": "IC50", "setting": "NCI-H526", "value": 0.275, "unit": "µM"},
      {"measurement": "IC50", "setting": "PER-403", "value": 0.038, "unit": "µM"},
      {"measurement": "IC50", "setting": "PER-624", "value": 0.524, "unit": "µM"},
      {"measurement": "IC50", "setting": "PER-704", "value": 0.658, "unit": "µM"},
      {"measurement": "IC50", "setting": "RCK8", "value": 0.529, "unit": "µM"},
      {"measurement": "IC50", "setting": "RL", "value": 0.014, "unit": "µM"},
      {"measurement": "IC50", "setting": "SF295", "value": 24.7, "unit": "µM"},
      {"measurement": "IC50", "setting": "SF539", "value": 0.061, "unit": "µM"},
      {"measurement": "IC50", "setting": "SK-BR-3", "value": 0.073, "unit": "µM"},
      {"measurement": "IC50", "setting": "SU-DHL-2", "value": 0.028, "unit": "µM"},
      {"measurement": "IC50", "setting": "SU-DHL-4", "value": 0.492, "unit": "µM"},
      {"measurement": "IC50", "setting": "SU-DHL-6", "value": 0.004, "unit": "µM"},
      {"measurement": "IC50", "setting": "SU-DHL-8", "value": 0.053, "unit": "µM"},
      {"measurement": "IC50", "setting": "SU-DHL-10", "value": 0.054, "unit": "µM"},
      {"measurement": "IC50", "setting": "SU-DHL-16", "value": 0.099, "unit": "µM"},
      {"measurement": "IC50", "setting": "ScaBER", "value": 0.198, "unit": "µM"},
      {"measurement": "IC50", "setting": "T24", "value": 0.765, "unit": "µM"},
      {"measurement": "IC50", "setting": "U2932", "value": 0.053, "unit": "µM"},
      {"measurement": "IC50", "setting": "U2940", "value": 10.2, "unit": "µM"},
      {"measurement": "IC50", "setting": "U-87MG", "value": 0.04, "unit": "µM"},
      {"measurement": "IC50", "setting": "WSU-DLCL2", "value": 0.082, "unit": "µM"},
      {"measurement": "IC50", "setting": "WSU-NHL", "value": 0.008, "unit": "µM"},
      {"measurement": "gIC100", "setting": "Z-138", "value": 80.7, "unit": "nM"}
    ]}
  ]
}
